Here are results for 14 compounds from PubChem BioAssay (NCI).

Molecules are shown by their SMILES. ≈ marks a conversion by molar mass, not a printed value.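 Dose response: 5 concentrations. Exposure: 48 h. Format: 96-well plates. Endpoint: linear interpolation; highest concentration if not reached. Here, GI50 denotes the concentration required for 50% inhibition of growth. Definition used: TGI = concentration required for complete inhibition of growth.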 Bounds are passed on as bounds.

Among the test systems are HOP-92 NSCLC; SNB-78 CNS; SF-539 CNS; M19-MEL melanoma; COLO 205 colon; HCC-2998 colon; DLD-1 colon; T-47D breast; MDA-MB-231 breast; DU-145 prostate; MDA-N; 786-0 renal.
What all share (assay): inhibition of tumour cell growth, NCI panel, 48 h

On to `O=C1CCCCC2N(C(c3ccccc3)c3ccccc3)CC[C@@]12c1ccccc1` (mixture of isomers), for which the TGI in the assay with HOP-92 NSCLC, in the assay on SNB-78 CNS, with SF-539 CNS and in the assay on M19-MEL melanoma was over 10 µM each time.
Take `C=C(C)C(=O)OC1CCC2(C)C(CCC3C2CCC2(C)C(c4ccc(=O)oc4)CC4OC432)C1` (stereo not drawn): the TGI in the assay with HOP-92 NSCLC is 9.96 µM; in the assay on SNB-78 CNS it was 60.7 µM; in the assay on SF-539 CNS it was 27.9 µM; in the assay on COLO 205 colon, 22.8 µM; in the assay with HCC-2998 colon, 17.8 µM; with M19-MEL melanoma, 10.7 µM. In the assay on DLD-1 colon, this compound came in with a TGI of 7.38 µM.
Consider `Cc1cc(O)c(C(C)(C)C)cc1Sc1cc(C(C)(C)C)c(O)cc1C`, for which the GI50 in the assay on T-47D breast is 2.09 µM; in the assay on HOP-92 NSCLC, 2.49 µM; with MDA-MB-231 breast it was 2.16 µM; in the assay on SF-539 CNS, 2.77 µM; in the assay with DU-145 prostate, 3.69 µM; in the assay on COLO 205 colon, 2.83 µM. For the same compound, the GI50 in the assay on HCC-2998 colon was 2.45 µM. For the same compound, the TGI with T-47D breast came out at 13.4 µM; in the assay on HOP-92 NSCLC it was 6.17 µM; in the assay with MDA-MB-231 breast, 5.06 µM; in the assay on SF-539 CNS, 9 µM; in the assay with DU-145 prostate, 13.2 µM; in the assay with COLO 205 colon it was 7.24 µM. The compound also displayed a TGI in the assay with HCC-2998 colon of 5.56 µM.
Regarding `N#Cc1c(Cl)c2cc([N+](=O)[O-])ccc2n2c1nc1ccccc12`, the TGI in the assay on T-47D breast turned out to be 4.8 µM; in the assay on MDA-MB-231 breast, 0.858 µM; with SF-539 CNS it was 4.28 µM; in the assay on DU-145 prostate, 18.4 µM; with COLO 205 colon it was 4.67 µM; in the assay with HCC-2998 colon it was 19.4 µM. The compound also returned a TGI with MDA-N of over 100 µM.
For `CCOC(=O)CN=C1NNS(=O)(=O)c2ccccc21`, the TGI in the assay on T-47D breast, with HOP-92 NSCLC, in the assay on MDA-MB-231 breast, with SF-539 CNS, in the assay with 786-0 renal and in the assay on DU-145 prostate was over 100 µM throughout. For the same compound, the TGI in the assay with COLO 205 colon, in the assay with HCC-2998 colon and with MDA-N was over 100 µM throughout.
With `Clc1ccccc1/C=C/c1cscn1`, the TGI in the assay on SNB-78 CNS, in the assay on SF-539 CNS, in the assay with HCC-2998 colon, with M19-MEL melanoma and with DLD-1 colon was over 100 µM throughout.
In the case of `NCCCCC(N)C(=O)NCCNc1ccc(NCCNC(=O)C(N)CCCCN)c2c1C(=O)c1ccccc1C2=O` (stereo not drawn), the TGI in the assay with T-47D breast, in the assay with HOP-92 NSCLC, with MDA-MB-231 breast, in the assay with SF-539 CNS, in the assay with 786-0 renal and in the assay with DU-145 prostate was over 100 µM throughout. In addition, the TGI in the assay with COLO 205 colon, with HCC-2998 colon and in the assay on MDA-N was over 100 µM in each case.
For `O=C(O)Cc1cc(O)c(CC(=O)O)cc1O`, the TGI in the assay with T-47D breast, in the assay on HOP-92 NSCLC, with MDA-MB-231 breast, with 786-0 renal, in the assay with DU-145 prostate and in the assay with HCC-2998 colon was over 100 µM throughout. The TGI in the assay with MDA-N is over 100 µM.
As for `CCOC(=O)C(O)(NC(=O)c1ccc(F)cc1)C(F)(F)F` (stereo not drawn), the TGI with T-47D breast, in the assay with HOP-92 NSCLC, with MDA-MB-231 breast, in the assay on SF-539 CNS, with DU-145 prostate and in the assay with COLO 205 colon was over 100 µM throughout. Also, the TGI in the assay with HCC-2998 colon and with MDA-N was over 100 µM each time.
As for `O=C1NN(C2=NNC3(C(=O)N2)c2ccccc2-c2ccccc23)C(c2ccccc2)=N/C1=C/c1ccc(O)cc1`, the GI50 in the assay with T-47D breast is 27 µg/mL; in the assay on MDA-MB-231 breast, 26.2 µg/mL; with SF-539 CNS, 32.7 µg/mL; in the assay with DU-145 prostate it was 90.8 µg/mL; in the assay on COLO 205 colon, over 150 µg/mL; with MDA-N, 56.8 µg/mL (≈ 108 µM). For the same compound, the TGI in the assay with T-47D breast was over 150 µg/mL; in the assay with MDA-MB-231 breast, 71.7 µg/mL; with SF-539 CNS, 87.5 µg/mL; with DU-145 prostate, over 150 µg/mL; in the assay on COLO 205 colon, over 150 µg/mL; with MDA-N, over 150 µg/mL.
With `C=CC1(C)CCC2=C(CCC3C(C)(C(=O)OC)CCCC23C)C1=O` (stereo not drawn), the TGI amounted to 80.1 µM with SNB-78 CNS, 34.6 µM in the assay with COLO 205 colon, 36 µM with M19-MEL melanoma and 36.5 µM in the assay with DLD-1 colon.
For the compound `Cn1c(=O)c2[nH]c(CCCCC(=O)O)nc2n(C)c1=O`, the TGI in the assay with T-47D breast, in the assay on HOP-92 NSCLC, in the assay on MDA-MB-231 breast, in the assay on 786-0 renal, in the assay with DU-145 prostate and in the assay on HCC-2998 colon was over 100 µM in each case. The same compound gave a TGI with MDA-N of over 100 µM.
With `O=C(N/N=C\c1cccc(O)c1)c1ccncc1`, the TGI in the assay with T-47D breast, with HOP-92 NSCLC, with MDA-MB-231 breast, with 786-0 renal, with DU-145 prostate and in the assay on HCC-2998 colon was over 100 µM throughout. For the same compound, the TGI with MDA-N is over 100 µM.
`Cc1nc2ccccc2n1C(=O)c1c(F)c(F)c(F)c(F)c1F`: the TGI in the assay with T-47D breast is over 100 µM; in the assay on HOP-92 NSCLC, 27.9 µM; in the assay on MDA-MB-231 breast it was 32 µM; in the assay with SF-539 CNS, 29.5 µM; in the assay on DU-145 prostate, 76.5 µM; with COLO 205 colon it was 77.9 µM. Moreover, the figures for the TGI with HCC-2998 colon and in the assay with MDA-N were 34.2 µM and 33.2 µM, respectively.
